Reference: PubChem BioAssay AID248 (DTP/NCI, 2004)
Several values for one entry are separate records, joined by “and”; a condition that tells them apart may be missing. Identical values can stand only once. Toxic doses and inconclusive results are not listed. Cut-off read from the data, not from the text of the source: active = T/C of 150% or more; inactive = T/C below 125%.

Tested on: L1210 leukemia ip in BDF1 mice, survival T/C
Assay: NCI In Vivo Anticancer Drug Screen. Data for tumor model L1210 Leukemia (intraperitoneal) in B6D2F1 (BDF1) mice
Settings: endpoint: mean survival time, higher = longer survival
How it was run: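 Mice bearing the transplanted tumor received compound or vehicle. Survival of the treated group was divided by that of the vehicle-treated control group to give the ratio.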

[1] = dose: 100.0 mg/kg/injection, schedule: Q01DX009 (ip), vehicle: Klucel (hydroxypropylcellulose) (HPC)
[2] = dose: 100.0 mg/kg/injection, schedule: Q04DX003 (ip), vehicle: Klucel (hydroxypropylcellulose) (HPC)
[3] = dose: 200.0 mg/kg/injection, schedule: Q01DX009 (ip), vehicle: Klucel (hydroxypropylcellulose) (HPC)
[4] = dose: 200.0 mg/kg/injection, schedule: Q04DX003 (ip), vehicle: Klucel (hydroxypropylcellulose) (HPC)
[5] = dose: 400.0 mg/kg/injection, schedule: Q01DX009 (ip), vehicle: Klucel (hydroxypropylcellulose) (HPC)
[6] = dose: 400.0 mg/kg/injection, schedule: Q04DX003 (ip), vehicle: Klucel (hydroxypropylcellulose) (HPC)
[7] = dose: 100.0 mg/kg/injection, schedule: Q01DX009 (ip), vehicle: saline with Tween-80
[8] = dose: 100.0 mg/kg/injection, schedule: Q04DX002 (ip), vehicle: saline with Tween-80
[9] = dose: 100.0 mg/kg/injection, schedule: Q04DX003 (ip), vehicle: saline with Tween-80
[10] = dose: 200.0 mg/kg/injection, schedule: Q01DX009 (ip), vehicle: saline with Tween-80
[11] = dose: 200.0 mg/kg/injection, schedule: Q04DX002 (ip), vehicle: saline with Tween-80
[12] = dose: 200.0 mg/kg/injection, schedule: Q04DX003 (ip), vehicle: saline with Tween-80
[13] = dose: 400.0 mg/kg/injection, schedule: Q04DX002 (ip), vehicle: saline with Tween-80
[14] = dose: 400.0 mg/kg/injection, schedule: Q04DX003 (ip), vehicle: saline with Tween-80
[15] = dose: 100.0 mg/kg/injection, schedule: Q01DX001 (ip), vehicle: saline
[16] = dose: 200.0 mg/kg/injection, schedule: Q01DX001 (ip), vehicle: saline
[17] = dose: 400.0 mg/kg/injection, schedule: Q01DX001 (ip), vehicle: saline
[18] = dose: 100.0 mg/kg/injection, schedule: Q04DX003 (ip), vehicle: saline
[19] = dose: 200.0 mg/kg/injection, schedule: Q04DX003 (ip), vehicle: saline

Measured: T/C

CCn1ccc(=O)c2cc([N+](=O)[O-])ccc21
inactive: [1] 95 % of control | [2] 92 % of control | [3] 103 % of control | [4] 92 % of control | [5] 92 % of control | [6] 91 % of control

O=c1[nH]cnc2c1cnn2-c1ccccc1
inactive: [1] 104 % of control | [3] 104 % of control | [5] 112 % of control

O=CC(O)C(O)C(OC1OC(CO)C(O)C(O)C1O)C(O)CO (stereo not given) (tested in a mixture with another compound)
inactive: dose: 75.0 mg/kg/injection, schedule: Q01DX009 (ip), vehicle: carboxymethylcellulose (CMC) 105 % of control | dose: 100.0 mg/kg/injection, schedule: Q01DX001 (ip), vehicle: saline with Tween-80 94 % of control and 98 % of control | dose: 100.0 mg/kg/injection, schedule: Q01DX009 (ip), vehicle: carboxymethylcellulose (CMC) 98 % of control | [7] 94 % of control | [8] 108 % of control [middle of 4 runs] | [9] 97 % of control and 108 % of control | dose: 150.0 mg/kg/injection, schedule: Q01DX009 (ip), vehicle: carboxymethylcellulose (CMC) 105 % of control | dose: 200.0 mg/kg/injection, schedule: Q01DX001 (ip), vehicle: saline with Tween-80 98 % of control and 105 % of control | dose: 200.0 mg/kg/injection, schedule: Q01DX009 (ip), vehicle: carboxymethylcellulose (CMC) 105 % of control | [10] 100 % of control | [11] 97 % of control [middle of 4 runs] | [12] 91 % of control and 92 % of control | dose: 300.0 mg/kg/injection, schedule: Q01DX009 (ip), vehicle: carboxymethylcellulose (CMC) 100 % of control | dose: 400.0 mg/kg/injection, schedule: Q01DX001 (ip), vehicle: saline with Tween-80 93 % of control and 92 % of control | dose: 400.0 mg/kg/injection, schedule: Q01DX009 (ip), vehicle: carboxymethylcellulose (CMC) 96 % of control | [13] 96 % of control and 92 % of control and 94 % of control | [14] 101 % of control and 92 % of control

CC(Cl)(/N=N/C(C)(Cl)c1cccc(Cl)c1)c1ccc(Cl)cc1 (stereo not given)
inactive: [9] 94 % of control

CSc1c(C(N)=O)c2c(N)ncnc2n1C1OC(CO)C(O)C1O (stereo not given)
inactive: [15] 114 % of control | [16] 121 % of control | [17] 121 % of control

CCCCCCCCCCCCCCCC[N+]1([O-])CCOCC1
inactive: dose: 12.5 mg/kg/injection, schedule: Q01DX009 (ip), vehicle: saline 96 % of control | dose: 25.0 mg/kg/injection, schedule: Q01DX009 (ip), vehicle: saline 102 % of control | dose: 50.0 mg/kg/injection, schedule: Q01DX009 (ip), vehicle: saline 98 % of control

Cc1c(Cl)cccc1NC(=O)Oc1ccc(-c2ccccc2)cc1
inactive: dose: 50.0 mg/kg/injection, schedule: Q04DX003 (ip), vehicle: saline with Tween-80 97 % of control | [7] 95 % of control and 97 % of control | [8] 93 % of control and 91 % of control | [9] 101 % of control | [10] 104 % of control and 89 % of control | [11] 96 % of control | [12] 100 % of control | [13] 96 % of control and 103 % of control

Nc1ncnc2c1ccn2Cc1ccccc1
inactive: dose: 50.0 mg/kg/injection, schedule: Q01DX001 (ip), vehicle: other 111 % of control | dose: 100.0 mg/kg/injection, schedule: Q01DX001 (ip), vehicle: other 97 % of control | dose: 200.0 mg/kg/injection, schedule: Q01DX001 (ip), vehicle: other 97 % of control | dose: 400.0 mg/kg/injection, schedule: Q01DX001 (ip), vehicle: other 103 % of control

O=c1cccccc1O.O=c1cccccc1O.[Cu]
inactive: dose: 1.56 mg/kg/injection, schedule: Q01DX009 (ip), vehicle: Klucel (hydroxypropylcellulose) (HPC) 97 % of control | dose: 3.12 mg/kg/injection, schedule: Q01DX009 (ip), vehicle: Klucel (hydroxypropylcellulose) (HPC) 94 % of control | dose: 6.0 mg/kg/injection, schedule: Q04DX003 (ip), vehicle: saline 94 % of control | dose: 6.25 mg/kg/injection, schedule: Q01DX009 (ip), vehicle: Klucel (hydroxypropylcellulose) (HPC) 94 % of control | dose: 12.0 mg/kg/injection, schedule: Q04DX003 (ip), vehicle: saline 95 % of control | dose: 25.0 mg/kg/injection, schedule: Q04DX003 (ip), vehicle: saline 102 % of control

CCCNC(=O)Oc1cccc2cccnc12
inactive: [1] 93 % of control and 95 % of control | dose: 100.0 mg/kg/injection, schedule: Q04DX002 (ip), vehicle: Klucel (hydroxypropylcellulose) (HPC) 97 % of control and 105 % of control | [3] 101 % of control and 112 % of control | dose: 200.0 mg/kg/injection, schedule: Q04DX002 (ip), vehicle: Klucel (hydroxypropylcellulose) (HPC) 102 % of control and 103 % of control | [5] 95 % of control

CC(C)OC(=O)Nc1cccc(NC(=O)OCCCl)c1
inactive: [8] 97 % of control | [11] 101 % of control | [13] 97 % of control

CC1=N/C(=C/c2ccccc2)C(=O)O1
inactive: [9] 97 % of control | [12] 92 % of control | [14] 98 % of control

NC1CCC(Cl)CC1 (stereo not given)
inactive: [15] 95 % of control | [18] 99 % of control | [16] 106 % of control | [19] 99 % of control | [17] 92 % of control

Cc1cc(C2=CCCCC2)c2ccccc2c1C
inactive: dose: 100.0 mg/kg/injection, schedule: Q01DX001 (ip), vehicle: Klucel (hydroxypropylcellulose) (HPC) 95 % of control | dose: 200.0 mg/kg/injection, schedule: Q01DX001 (ip), vehicle: Klucel (hydroxypropylcellulose) (HPC) 103 % of control | dose: 400.0 mg/kg/injection, schedule: Q01DX001 (ip), vehicle: Klucel (hydroxypropylcellulose) (HPC) 95 % of control

NC(Cn1cc(N(CCCl)CCCl)c(=O)[nH]c1=O)C(=O)O (stereo not given)
inactive: dose: 2.5 mg/kg/injection, schedule: Q01DX009 (ip), vehicle: water 114 % of control | dose: 4.0 mg/kg/injection, schedule: Q01DX009 (ip), vehicle: saline 108 % of control | dose: 5.0 mg/kg/injection, schedule: Q01DX009 (ip), vehicle: water 122 % of control | dose: 6.0 mg/kg/injection, schedule: Q01DX009 (ip), vehicle: saline 113 % of control | dose: 8.0 mg/kg/injection, schedule: Q01DX009 (ip), vehicle: saline 103 % of control | dose: 9.0 mg/kg/injection, schedule: Q01DX009 (ip), vehicle: saline 111 % of control | dose: 14.0 mg/kg/injection, schedule: Q01DX009 (ip), vehicle: saline 120 % of control | dose: 16.0 mg/kg/injection, schedule: Q01DX009 (ip), vehicle: saline 118 % of control | dose: 19.0 mg/kg/injection, schedule: Q01DX001 (ip), vehicle: saline 97 % of control | dose: 20.0 mg/kg/injection, schedule: Q01DX001 (ip), vehicle: saline 121 % of control | dose: 30.0 mg/kg/injection, schedule: Q01DX001 (ip), vehicle: saline 115 % of control | dose: 33.0 mg/kg/injection, schedule: Q01DX009 (ip), vehicle: saline 98 % of control | dose: 37.5 mg/kg/injection, schedule: Q01DX001 (ip), vehicle: saline 114 % of control | dose: 45.0 mg/kg/injection, schedule: Q01DX009 (ip), vehicle: saline 101 % of control | dose: 75.0 mg/kg/injection, schedule: Q01DX009 (ip), vehicle: saline 103 % of control

COC1CC=CC2=C1CCC1C2CC2C(=O)C1(C)CCC2O (stereo not given)
inactive: [18] 94 % of control | [19] 100 % of control | dose: 400.0 mg/kg/injection, schedule: Q04DX003 (ip), vehicle: saline 97 % of control

CN(C)OC(=O)Nc1cccc([N+](=O)[O-])c1
inactive: dose: 100.0 mg/kg/injection, schedule: Q04DX002 (ip), vehicle: other 87 % of control | dose: 200.0 mg/kg/injection, schedule: Q04DX002 (ip), vehicle: other 102 % of control | dose: 400.0 mg/kg/injection, schedule: Q04DX002 (ip), vehicle: other 117 % of control

COc1cc(C(=O)CCC(=O)O)cc(OC)c1OC
inactive: [1] 96 % of control | [2] 96 % of control | [3] 104 % of control | [4] 102 % of control | [5] 102 % of control | [6] 93 % of control

O=C(N/N=C/c1ccc2c(c1)OCO2)c1ccncc1
inactive: [7] 102 % of control | [10] 94 % of control | dose: 400.0 mg/kg/injection, schedule: Q01DX009 (ip), vehicle: saline with Tween-80 104 % of control
